Our source for the Activity, IC50 and solubility values is ChEMBL document CHEMBL2016464, “Identification of Inhibitors of NOD1-Induced Nuclear Factor-κB Activation” (ACS Med Chem Lett, 2011).

One data set relates to HEK-293T. Briefly: Cytotoxicity against HEK293T cells at 20 uM by alamar blue assay. To be noted: human. It counts as cell-based.
A short description of the next data set: cells. To be noted: Homo sapiens, HEK-293T, 14 h.
Data set [1] addresses Nucleotide-binding oligomerization domain-containing protein 2 (Homo sapiens, UniProt Q9HC29).
Data set [2] is described as follows: Solubility of the compound at pH 7.4. It counts as physicochemical. To be noted: buffer.

≈ marks a conversion by molar mass, not a printed value.

Nucleotide-binding oligomerization domain-containing protein 2, sequence (Q9HC29 whole entry, the tested form may be a part): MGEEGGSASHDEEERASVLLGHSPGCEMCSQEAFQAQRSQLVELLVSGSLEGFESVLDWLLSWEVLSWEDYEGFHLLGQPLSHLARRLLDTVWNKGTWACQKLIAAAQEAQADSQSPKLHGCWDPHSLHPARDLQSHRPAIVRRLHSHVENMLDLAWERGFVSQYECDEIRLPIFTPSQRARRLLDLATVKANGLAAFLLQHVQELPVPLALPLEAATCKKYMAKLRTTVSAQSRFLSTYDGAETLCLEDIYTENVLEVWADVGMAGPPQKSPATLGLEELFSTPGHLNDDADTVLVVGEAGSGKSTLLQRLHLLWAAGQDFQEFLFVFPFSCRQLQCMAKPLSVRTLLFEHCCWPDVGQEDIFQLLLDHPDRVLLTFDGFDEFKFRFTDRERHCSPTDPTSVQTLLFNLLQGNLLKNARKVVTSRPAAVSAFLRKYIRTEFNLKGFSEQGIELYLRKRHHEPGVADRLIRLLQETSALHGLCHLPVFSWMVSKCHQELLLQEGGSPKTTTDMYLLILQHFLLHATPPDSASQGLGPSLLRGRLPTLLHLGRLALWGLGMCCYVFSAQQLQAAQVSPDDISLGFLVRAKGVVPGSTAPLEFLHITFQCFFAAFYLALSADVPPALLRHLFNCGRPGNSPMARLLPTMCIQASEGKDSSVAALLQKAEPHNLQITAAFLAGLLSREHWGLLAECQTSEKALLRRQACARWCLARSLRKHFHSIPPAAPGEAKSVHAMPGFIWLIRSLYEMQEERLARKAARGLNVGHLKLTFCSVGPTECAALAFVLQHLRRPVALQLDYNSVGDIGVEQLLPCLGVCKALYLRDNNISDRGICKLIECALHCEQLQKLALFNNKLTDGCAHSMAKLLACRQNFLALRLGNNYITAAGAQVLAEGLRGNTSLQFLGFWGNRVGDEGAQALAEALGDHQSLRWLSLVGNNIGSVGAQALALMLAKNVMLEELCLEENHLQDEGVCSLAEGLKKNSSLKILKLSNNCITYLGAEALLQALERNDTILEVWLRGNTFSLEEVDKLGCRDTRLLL
Description for cells: Inhibition of TNFalpha-induced NFkappaB activation in HEK293T cells after 14 hrs by luciferase reporter gene assay

In the data set with HEK-293T, `N#Cc1ccc(N2CCN(S(=O)(=O)c3ccc4c(c3)CCN4C(=O)C3CC3)CC2)cc1` yielded an Activity of 0%. This molecule registered an IC50 in “cells” greater than 20 µM.

For `CCOC(=O)c1ccc(NC(=O)c2ccc(CN3CCc4ccccc4C3)cc2)cc1`, the IC50 in data set [1] came out at 0.4 µM; in “cells” it was 0.14 µM. Besides, the Activity in the data set on HEK-293T stood at 0%.

Take `Cc1ccc(S(=O)(=O)n2c(N)nc3cc(C)c(C)cc32)cc1`: the Activity in the data set on HEK-293T came to 0%. In the data set “cells”, this molecule had an IC50 greater than 20 µM.

In turn, `CC(=O)N1CCc2cc(S(=O)(=O)N3CCN(c4ccc(C#N)cc4)CC3)ccc21` came in with an Activity in the data set with HEK-293T of 0%. Also, the concentration in solution in data set [2] (solubility) was 0.1 µg/mL (≈ 0.244 µM). In “cells”, this molecule gave an IC50 of 8.79 µM.

For the molecule `O=C(Nc1ccc(Cl)cc1)c1ccc(CN2CCc3ccccc3C2)cc1`, the IC50 in data set [1] was 3.54 µM; in the data set “cells”, 0.49 µM. Also, in the data set with HEK-293T, the Activity was 0%.

The molecule `Nc1nc2ccccc2n1CCC(=O)c1ccc(Cl)cc1` gave an Activity in the data set with HEK-293T of 0%. Moreover, in “cells”, the IC50 was greater than 20 µM.

`Nc1nc2ccccc2n1S(=O)(=O)c1ccccc1`: in the data set with HEK-293T, the Activity was 0%. This molecule yielded an IC50 in the data set “cells” greater than 20 µM.

`Cc1ccc(S(=O)(=O)n2c(C)nc3ccccc32)cc1` displayed an Activity in the data set on HEK-293T of 0%.

As to `CC(=O)c1ccc(N2CCN(S(=O)(=O)c3ccc4c(c3)CCN4C(C)=O)CC2)cc1`, the Activity in the data set on HEK-293T was determined as 0%. Moreover, the IC50 in “cells” was greater than 20 µM.

On to `CCOc1ccc(NC(=O)c2ccc(CN3CCc4ccccc4C3)cc2)cc1`, for which the IC50 in data set [1] worked out at 0.57 µM; in “cells”, 2.05 µM. The molecule also came in with an Activity in the data set with HEK-293T of 0%.

Take `CCC(=O)N1CCc2cc(S(=O)(=O)N3CCN(c4ccc([N+](=O)[O-])cc4)CC3)ccc21`: the Activity in the data set on HEK-293T turned out to be 0%. The IC50 in the data set “cells” is greater than 20 µM.

Turning to `CCC(=O)N1c2ccc(S(=O)(=O)N3CCN(c4ccc(Cl)cc4)CC3)cc2CC1C` (racemic), the IC50 in data set [1] was 0.6 µM; in “cells”, 0.58 µM. Moreover, the Activity in the data set on HEK-293T is reported as 0%. The solubility in data set [2] is 0.1 µg/mL (≈ 0.223 µM).

As to `CSc1ccc(NC(=O)c2ccc(CN3CCc4ccccc4C3)cc2)cc1`, the IC50 in data set [1] was 0.26 µM; in the data set “cells”, 0.37 µM. For the same molecule, the Activity in the data set with HEK-293T was found to be 0%.

For the molecule `CCOC(=O)c1ccc(NC(=O)c2ccc(CCN3CCc4ccccc4C3)cc2)cc1`, the IC50 is greater than 20 µM in data set [1] and 10.8 µM in the data set “cells”. Further, in the data set with HEK-293T, the Activity is 0%.

On to `CCC(=O)N1c2ccc(S(=O)(=O)N3CCN(c4ccc([N+](=O)[O-])cc4)CC3)cc2CC1C` (racemic), for which the IC50 in data set [1] amounted to 1.55 µM; in “cells”, 4.92 µM. The same molecule came in with an Activity with HEK-293T of 0%. Also, the concentration in solution in data set [2] (solubility) was 0.1 µg/mL (≈ 0.218 µM).

Take `CC(=O)N1CCc2cc(S(=O)(=O)N3CCN(c4ccc([N+](=O)[O-])cc4)CC3)ccc21`: the Activity in the data set on HEK-293T is reported as 0%. Further, the IC50 in “cells” is greater than 20 µM.

Turning to `CC(=O)N1c2ccc(S(=O)(=O)N3CCN(c4ccc([N+](=O)[O-])cc4)CC3)cc2CC1C` (racemic), the Activity in the data set with HEK-293T stood at 0%. This molecule also yielded an IC50 in the data set “cells” of 3.27 µM.

On to `Cc1ccc(S(=O)(=O)n2cnc3ccccc32)cc1`, for which the IC50 (in data set [1]; in the data set “cells”) was greater than 20 µM throughout. This molecule also came in with an Activity in the data set with HEK-293T of 0%.

With `O=C(Nc1ccc(Br)cc1)c1ccc(CN2CCc3ccccc3C2)cc1`, in the data set on HEK-293T, the Activity was found to be 0%. This molecule also came in with an IC50 in the data set “cells” of 1.5 µM.

As for `CC(=O)c1ccc(N2CCN(S(=O)(=O)c3ccc4c(c3)CCN4C(=O)C3CC3)CC2)cc1`, the Activity with HEK-293T amounted to 0%. In addition, the IC50 in “cells” was greater than 20 µM.

In the data set on HEK-293T, `CCC(=O)N1CCc2cc(S(=O)(=O)N3CCN(c4ccc(C#N)cc4)CC3)ccc21` showed an Activity of 0%. In “cells”, this molecule registered an IC50 greater than 20 µM.

Regarding `Nc1nc2ccccc2n1C(=O)c1ccc(F)cc1`, the Activity in the data set on HEK-293T was 0%.

`CCOc1ccc(NC(=O)c2ccc(CN3CCCCC3)cc2)cc1`: the Activity with HEK-293T is reported as 0%. Also, the IC50 in “cells” is greater than 20 µM.

The molecule `CN(C)c1ccc(NC(=O)c2ccc(CN3CCc4ccccc43)cc2)cc1` showed an Activity with HEK-293T of 0%. In “cells”, the IC50 was greater than 20 µM.

The molecule `Nc1nc2ccccc2n1S(=O)(=O)c1ccc([N+](=O)[O-])cc1` showed an Activity in the data set on HEK-293T of 0%.

On to `Nc1nc2ccccc2n1Cc1ccc(Cl)cc1`, for which the Activity with HEK-293T was 0%. The IC50 in the data set “cells” was greater than 20 µM.

In the data set on HEK-293T, `CSc1ccc(NC(=O)c2ccc(CN3CCCCC3)cc2)cc1` yielded an Activity of 0%. Besides, the IC50 in the data set “cells” is greater than 20 µM.

`COc1ccc(S(=O)(=O)n2c(N)nc3ccccc32)cc1`: the Activity in the data set on HEK-293T is 0%.

`CN(C)c1ccc(NC(=O)c2ccc(CN3CCc4ccccc4C3)cc2)cc1`: the IC50 in data set [1] was 3.58 µM; in the data set “cells” it was 1.83 µM. Moreover, the Activity with HEK-293T is on record as 0%.

`O=C(C1CC1)N1CCc2cc(S(=O)(=O)N3CCN(c4ccc([N+](=O)[O-])cc4)CC3)ccc21`: in the data set on HEK-293T, the Activity is listed as 0%. For the same molecule, the concentration in solution in data set [2] (solubility) came to 0.1 µg/mL (≈ 0.219 µM). This molecule returned an IC50 in “cells” greater than 20 µM.

As for `O=C(Nc1ccc(F)cc1)c1ccc(CN2CCCCC2)cc1`, the Activity with HEK-293T is recorded as 0%. Moreover, the IC50 in the data set “cells” was greater than 20 µM.

For the molecule `CC1Cc2cc(S(=O)(=O)N3CCN(c4ccc(Cl)cc4)CC3)ccc2N1C(=O)C1CC1` (racemic), the results for the IC50 (in data set [1]; in “cells”) were 3.63 µM and 7.26 µM, respectively. Also, the Activity in the data set with HEK-293T stood at 0%. In data set [2], this molecule showed a solubility of 0.1 µg/mL (≈ 0.217 µM).

With `Cc1ccc(S(=O)(=O)n2c(S)nc3ccc(C)cc32)cc1`, the Activity in the data set on HEK-293T is given as 0%. In addition, the IC50 in “cells” was greater than 20 µM.

On to `Cc1ccc(NC(=O)c2ccc(CN3CCc4ccccc4C3)cc2)cc1`, for which the IC50 (in data set [1]; in “cells”) was greater than 20 µM throughout. Moreover, the Activity with HEK-293T was determined as 0%.

In the data set with HEK-293T, `Nc1nc2ccccc2n1S(=O)(=O)c1ccc(Cl)cc1` showed an Activity of 0%.

As to `CCC(=O)N1c2ccc(S(=O)(=O)N3CCN(c4ccc(C(C)=O)cc4)CC3)cc2CC1C` (racemic), the IC50 in data set [1] was 1.58 µM; in the data set “cells”, 1.63 µM. Moreover, in the data set with HEK-293T, the Activity is on record as 0%. For the same molecule, in data set [2], the solubility amounted to 0.1 µg/mL (≈ 0.22 µM).

As to `CC(=O)c1ccc(N2CCN(S(=O)(=O)c3ccc4c(c3)CC(C)N4C(C)=O)CC2)cc1` (racemic), the IC50 in data set [1] was determined as 3.72 µM; in the data set “cells” it was 6 µM. The molecule further showed an Activity in the data set with HEK-293T of 0%. For the same molecule, the concentration in solution in data set [2] (solubility) was 0.1 µg/mL (≈ 0.226 µM).

Regarding `COc1ccc(N2CCN(S(=O)(=O)c3ccc4c(c3)CC(C)N4C(C)=O)CC2)cc1` (racemic), the IC50 in data set [1] is 3.29 µM; in “cells”, 4.3 µM. The Activity with HEK-293T stood at 0%. The solubility in data set [2] was determined as 0.1 µg/mL (≈ 0.233 µM).

`COc1ccc(N2CCN(S(=O)(=O)c3ccc4c(c3)CC(C)N4C(=O)C3CC3)CC2)cc1` (racemic): the IC50 in data set [1] was determined as 0.39 µM; in “cells”, 3.85 µM. In the data set with HEK-293T, the Activity is reported as 0%. The amount in solution in data set [2] (solubility) came to 0.1 µg/mL (≈ 0.22 µM).

As for `CN(C)c1ccc(NC(=O)c2ccc(CN3CCCCC3)cc2)cc1`, in the data set on HEK-293T, the Activity is 0%. In the data set “cells”, the IC50 was greater than 20 µM.

On to `CC(=O)N1c2ccc(S(=O)(=O)N3CCN(c4ccc(Cl)cc4)CC3)cc2CC1C` (racemic), for which the IC50 in data set [1] turned out to be 1.75 µM; in the data set “cells”, 5.76 µM. The same molecule registered an Activity with HEK-293T of 0%. In addition, in data set [2], the solubility came out at 0.1 µg/mL (≈ 0.23 µM).

Consider `O=C(Nc1ccc(F)cc1)c1ccc(CN2CCc3ccccc3C2)cc1`, for which the IC50 is 1.85 µM in data set [1] and 2.88 µM in the data set “cells”. This molecule also came in with an Activity in the data set with HEK-293T of 0%.

On to `CC1Cc2cc(S(=O)(=O)N3CCN(c4ccc([N+](=O)[O-])cc4)CC3)ccc2N1C(=O)C1CC1` (racemic), for which the IC50 in data set [1] amounted to 0.2 µM; in the data set “cells”, 0.24 µM. Besides, in the data set with HEK-293T, the Activity is recorded as 0%. In data set [2], this molecule showed a solubility of 0.1 µg/mL (≈ 0.213 µM).

With `CC(=O)N1c2ccc(S(=O)(=O)N3CCN(c4ccc(C)cc4)CC3)cc2CC1C` (racemic), the IC50 was determined as 3.45 µM in data set [1] and 4.32 µM in the data set “cells”. The molecule further came in with an Activity in the data set on HEK-293T of 0%. In data set [2], this molecule yielded a solubility of 0.1 µg/mL (≈ 0.242 µM).

Take `COc1ccc(NC(=O)c2ccc(CN3CCc4ccccc4C3)cc2)cc1`: the IC50 was found to be 0.78 µM in data set [1] and 0.65 µM in “cells”. In the data set with HEK-293T, this molecule had an Activity of 0%.

With `CC(=O)N1c2ccc(S(=O)(=O)N3CCN(c4ccccc4)CC3)cc2CC1C` (racemic), the IC50 amounted to 8.27 µM in data set [1] and 14.1 µM in “cells”. The Activity in the data set on HEK-293T turned out to be 0%. This molecule gave a solubility in data set [2] of 0.1 µg/mL (≈ 0.25 µM).

Molecule `CC(=O)N1CCc2cc(S(=O)(=O)N3CCN(c4ccc(Cl)cc4)CC3)ccc21` returned an Activity in the data set with HEK-293T of 0%. In the data set “cells”, this molecule yielded a half-maximal inhibitory concentration (IC50) greater than 20 µM.

On to `Nc1nc2ccccc2n1C(=O)c1ccc(Cl)cc1Cl`, for which, in the data set on HEK-293T, the Activity turned out to be 0%.

As to `O=C(Nc1ccc(F)cc1)c1ccc(CN2CCc3ccccc32)cc1`, the Activity in the data set on HEK-293T was determined as 0%. The molecule also displayed an IC50 in the data set “cells” greater than 20 µM.

The IC50 is the concentration that inhibits the measured activity by half. Usually solubility stands for the concentration that dissolves in the medium under given conditions. Higher therefore signals a readily soluble substance.
